Assay results: patent US20050101542A1, “Combination therapy for controlling appetites” (Regents of the University of California, priority 2002, published 2005)

Legend:
[1] = Food intake in capsaicin-treated (sensory deafferented) rats, Example 2; type: in vivo, rat; details: OEA 10 mg per kg i.p.
Method: FAE were dissolved in dimethylsulphoxide (DMSO) and administered in 70% DMSO in sterile saline (acute treatments) Or 5% Tween 80/5% propylenglycol in sterile saline (subchronic treatments) (1 ml per kg, i.p.). Capsaicin was administered in 10% Tween 80/10% ethanol/80% saline; SR141716A, SR144528, CCK-8 and CP-93129 in 5% Tween 80/5% propylenglycol/90% saline (1 ml per kg, i.p.).

[2] = Other behavioral assays (elevated plus maze, open field, hot plate, rectal temperature); type: in vivo, rat
Method: Other behavioral assays. The elevated plus maze test was conducted as described (Navarro, et al., Neuroreport, 8:491-496 (1997)) after the administration of vehicle or OEA (20 mg per kg, i.p.). Horizontal activity in an open field (Beltramo et al., J. Neurosci., 20:3401-3407 (2000)) and pain threshold in the hot plate test (55° C.) (Beltramo et al., Science, 277:1094-1097 (1997)) were measured 15 min after injection of vehicle or OEA (20 mg per kg). Rectal temperature was measured using a digital thermometer (Martin-Calderón et al., Eur. J. Pharmacol., 344:77-86. (1998)).

Cardiomyocyte = test: [14C]oleate oxidation to CO2 in cardiomyocytes; type: cell-based, rat; details: 30 min incubation
Description: (§1) This example illustrates the effect of OEA on fat metabolism and methods for studying the same. Oleoylethanolamide (OEA) decreases body weight not only by suppressing appetite, but also by possibly enhancing body fat catabolism. The effects of OEA on fatty acid oxidation in major body-fat burning tissues (soleus muscle, liver, cultured cardiac myocytes and astrocytes) was examined. […] In addition, OEA induces a significant mobilization of triacylglycerol stores from primary white adipose tissue cells. Table 4 details the methods and effects of OEA on fatty acid oxidation in these cells. Structure-activity relationship experiments provide evidence that the effect of OEA on skeletal muscle fatty acid oxidation is specific (FIG. 8).

Adipocyte = test: Lypolysis (glycerol release) in adipocytes; type: cell-based, rat; details: 30 min incubation
Description: as §1

human PPARα = target: T1, human PPARα (Homo sapiens, UniProt Q07869); test: GAL4 chimeric receptor transactivation assay in HeLa cells, PPARα; type: cell-based; details: HeLa transactivation assay, 7 hours; read-out: EC50 for PPARα activation
T1 construct: expressed in transfected cells; host or cells: HeLa (clonal reporter line HLR, stably transfected with pFA-PPARα)
T1 sequence (Q07869 239-466 limits assumed): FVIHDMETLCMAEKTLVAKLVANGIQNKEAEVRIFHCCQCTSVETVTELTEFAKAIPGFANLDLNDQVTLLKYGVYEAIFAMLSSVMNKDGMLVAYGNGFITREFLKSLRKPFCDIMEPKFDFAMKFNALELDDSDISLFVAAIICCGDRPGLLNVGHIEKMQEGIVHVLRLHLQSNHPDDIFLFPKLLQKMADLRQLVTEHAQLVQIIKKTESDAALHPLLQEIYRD
Method: Eighteen hours following transfection, the culture media was replaced with supplemented DMEM containing hygromycin (100 μg-ml^−1, Calbiochem). After 4 weeks in culture, the surviving clones were isolated and analyzed by luciferase assay. […] The cells were cultured in supplemented DMEM containing hygromycin and G418. For transactivation assays, cells were seeded in 6-well plates (50,000 cells per well) and incubated for 7 hours in supplemented DMEM containing hygromycin and G418, plus appropriate concentrations of test compounds. Dual-luciferase reporter assay system (Promega) and an MLX Microtiter® plate luminometer (Dynex) were used to determine luciferase activity in cell lysates.

[3] = Subchronic OEA in high-fat-fed obese wild-type and PPARα null mice; type: in vivo, mouse; details: 4 weeks; for hypercholesterolemia (serum cholesterol): 5 mg-kg^−1 once daily i.p.
Method: (§2) Subchronic experiments. Male wild-type and PPARα null mice were fed with a very high-fat diet (60 kcal % fat; D12492; Research Diets, NJ). […] The mice were divided into 4 groups (n=7-8 each), and treated them for 4 additional weeks with vehicle (saline/polyethylene glycol/Tween 80, 90/5/5; 1 ml-kg^−1) Or OEA (5 mg-kg^−1, once daily, i.p.). In a separate experiment, obese Zucker rats were treated for 2 weeks with vehicle or OEA (5 mg-kg^−1, once daily, i.p.), while maintaining them on a regular rodent chow (RMH 2500, Prolab). Food intake and body weight were measured daily. At the end of the experiments, the animals were fasted overnight, and tissues and blood samples collected for biochemical analyses.
(§3) Lipids were extracted from mouse liver and epidydimal adipose tissue (Bligh and Dyer, 1959) and measured triglycerides with a commercial kit (Sigma). Serum lipids and glucose were measured with an automated Synchron LX® system (Beckman-Coulter).

PPAR-α-regulated genes = test: Real time quantitative PCR of gene expression in mouse intestine and liver; type: in vivo
Method: Tissues were stored in RnaLater™ (Ambion), extracted total RNA with TRIzol™ (Invitrogen) and quantified it with Ribogreen™ (Molecular Probes). cDNA was synthesized by using SuperscriptII RNase H-reverse transcriptase (Invitrogen).
Reverse transcription of total RNA (2 μg) was performed using Oligo(dT)12-18 primer (0.2 μg) for 50 min at 42° C. Real Time Quantitative (RTQ) PCR was conducted using an ABI PRISM 7700 sequence detection system (Applied Biosystems). Primer/probe sets were designed using the Primer Express™ software and gene sequences available from the Genebank™ database. Primers and fluorogenic probes were synthesized by TIB (Adelphia). The primer/probe sequences for the mouse genes were:
RNA levels were normalized by using glyceraldehyde 3-phosphate dehydrogenase (GAPDH) as an internal standard. mRNA levels were measured by generating six-point serial standard curves using mouse total RNA. Estimates of relative mRNA abundance (in arbitrary units) were made by using the CT value (Schmittgen et al., 2000). Relative quantifications of RNAs of interest were made by using the 2^ΔCT formula, in which ΔCT was calculated by subtracting the CT value for GAPDH from the CT value for the gene of interest. This formula was validated for each primer/probe set by using six-point serial standard curves.

[4] = OEA for 2 weeks in obese Zucker rats: serum lipids, glucose, food intake, body weight; type: in vivo, rat
Method: as §2
Chronic experiment: In a separate experiment, we treated obese Zucker rats for 2 weeks with vehicle (saline/polyethylene glycol/Tween-80, 90/5/5; 1 ml kg^−1, once daily, i.p.) or OEA (5 mg kg^−1, once daily, i.p.), while maintaining them on a regular rodent chow (RMH 2500, Prolab). We measured food intake and body weight daily. At the end of the experiments, the animals were fasted overnight, and tissues and blood samples collected for biochemical analyses.
as §3

[5] = obese wild-type mice, 5 mg-kg^−1 i.p. daily
[6] = OEA 5 mg kg−1 i.p. once a day for 2 weeks

SMILES: CCCCCCCC/C=C\CCCCCCCC(=O)NCCO [OEA, Z-2-hydroxyethyl octadec-9-enamide]
- feeding response in capsaicin-treated rats [1]: failed to respond
- anxiety-like symptoms (elevated plus maze) ([2]; acute): did not produce
- body temperature ([2]; acute, 5 or 20 mg per kg): did not alter
- pain threshold (hot plate) ([2]; acute, 5 or 20 mg per kg): did not alter
- motor activity (open field) ([2]; at a dose substantially higher than those required to produce hypophagia): reduced
- Stimulatory effect of 10 μM OEA on [14C]oleate oxidation to CO2 (Cardiomyocyte): 37 ± 9 (n = 3) %
- Stimulatory effect of 10 μM OEA on lypolysis (glycerol release) (Adipocyte): 38 ± 16 (n = 3) %
- EC50 (human PPARα): 120 nM
- hypercholesterolemia (serum cholesterol) ([3]; high fat-fed PPARα-null mice): ineffective
- hypercholesterolemia (serum cholesterol) ([3]; high fat-fed wild-type mice): partially corrected
- cumulative food intake and body-weight gain ([3]; obese PPARα deficient mice, 5 mg-kg^−1 i.p. daily): no such effect
- body-weight gain [3, 5]: suppressed
- cumulative food intake (normalized for body mass) [3, 5]: significantly reduced
- expression of PPAR-α-regulated genes (PPAR-α-regulated genes; ileum): not and fail to induce expression
- expression of PPAR-α-regulated genes (PPAR-α, FAT/CD36, FATP1) (PPAR-α-regulated genes; jejunum of wild-type mice, OEA or oleic acid 10, Wy-14643 30 mg kg^−1 i.p.): increased the expression
- expression of genes not under the control of PPAR-α (I-FABP, PPAR-β/δ, PPAR-γ) (PPAR-α-regulated genes; jejunum, wild-type or PPAR-α-null mice): not affected
- gene expression in mice deficient in PPAR-α (PPAR-α-regulated genes; jejunum, OEA 10, Wy-14643 30 mg kg^−1 i.p.): did not stimulate gene expression
- transcription of PPAR-α-regulated genes (PPAR-α-regulated genes; liver of wild-type mice): initiated transcription
- Serum cholesterol [4, 6]: 66.14 ± 7.06 mg/dL
- Serum glucose [4, 6]: 221.25 ± 23.80 mg/dL
- Serum triglycerides [4, 6]: 394.17 ± 49.40 mg/dL
- food intake and body-weight gain ([4]; OEA 5 mg-kg^−1 once daily for 2 weeks i.p.): significant inhibition
